Data published in patent publication US20100035756A1, “TRIAZOLOPHYRIDINE DERIVATIVES AS HERBICIDES” (SYNGENTA LIMITED, priority 2006, published 2010).

Legend:
[1] = test system: Monocotyledonous and dicotyledonous test plants; test: Herbicidal action prior to emergence of the plants (pre-emergence action), Example B1; type: in vivo; conditions: preemergence application, 250 g/ha, evaluated after 4 weeks, 100%=total damage, 0%=no damage
Procedure: (§1) Monocotyledonous and dicotyledonous test plants are sown in seed trays in standard soil. Immediately after sowing, the test compounds are applied by spraying in the form of an aqueous suspension (prepared from a wettable powder (Example F3, b) according to WO 97/34485) or in the form of an emulsion (prepared from an emulsifiable concentrate (Example F1, c) according to WO 97/34485) in a concentration of 250 g/ha. The test plants are then grown in a greenhouse under optimum conditions. After a 4-week test period, the test is evaluated (100%=total damage to plant; 0%=no damage to plant; NC not evaluated).

[2] = test system: Monocotyledonous and dicotyledonous test plants; test: Herbicidal action after emergence of the plants (post-emergence herbicidal action), Example B2; type: in vivo; conditions: postemergent application, 125 g/ha, 2- to 3-leaf stage, evaluated after 2-3 weeks, 100%=total damage
Procedure: as §1, with “When the test plants are at the 2- to 3-leaf stage,” for “Immediately after sowing,”, “125” for “250”, “grown on” for “grown”, “2- to 3-week” for “4-week”, “plant).” for “plant; NC not evaluated).”

SMILES	herbicidal damage, ABUTH [1] [%]	herbicidal damage, BRAPL [1] [%]	herbicidal damage, DIGSA [1] [%]	herbicidal damage, ECHCG [1] [%]	herbicidal damage, SETFA [1] [%]	herbicidal damage, STEME [1] [%]	herbicidal damage, VERPE [1] [%]	herbicidal damage, ABUTH [2] [%]	herbicidal damage, AMARE [2] [%]	herbicidal damage, CHEAL [2] [%]	herbicidal damage, DIGSA [2] [%]	herbicidal damage, SETFA [2] [%]	herbicidal damage, SINAR [2] [%]	herbicidal damage, VERPE [2] [%]	herbicidal damage, XANST [2] [%]	herbicidal damage, AMARE [1] [%]
O=C(C1=C(O)C2CCC(C2)C1=O)c1ccc(C(F)(F)F)n2cnnc12 (stereo not shown) [Compound 1.1]	100	30	70	0	30	100	60	80	80	80	60	80	90	50	80	–
O=C(C1=C(O)C2CCC(C2)C1=O)c1ccc(C(F)(F)F)n2c(Cl)nnc12 (stereo not shown) [Compound 1.2]	100	100	100	100	90	–	70	90	80	80	90	90	70	70	80	100
CC(C)c1nnc2c(C(=O)C3=C(O)C4CCC(C4)C3=O)ccc(C(F)(F)F)n12 (stereo not shown) [Compound 1.7]	100	80	100	80	80	100	100	90	90	80	80	70	80	90	80	100
COCc1nnc2c(C(=O)C3=C(O)C4CCC(C4)C3=O)ccc(C(F)(F)F)n12 (stereo not shown) [Compound 1.16]	100	70	80	100	80	100	50	80	90	80	70	70	80	80	80	100
Cc1nnc2c(C(=O)C3=C(O)C4CCC(C4)C3=O)ccc(C(F)F)n12 (stereo not shown) [Compound 1.54]	20	40	0	0	0	0	20	70	80	70	60	50	60	60	70	10
CCOc1nnc2c(C(=O)C3=C(O)C4CCC(C4)C3=O)ccc(C(F)(F)F)n12 (stereo not shown) [Compound 1.211]	30	100	70	70	30	80	90	70	100	80	70	80	80	80	80	100
